# From US8093279B2, “Compound” (priority 2005, dated 2012)
# How the values were obtained:
# Aromatase = target: T1, Aromatase (Homo sapiens, UniProt P11511); assay: Aromatase activity in JEG3 choriocarcinoma cells (Protocol 6); type: cell-based; conditions: JEG3 cells
# T1 construct: host or cells: JEG3 choriocarcinoma cells (intact monolayers)
# T1 sequence (P11511 1-503): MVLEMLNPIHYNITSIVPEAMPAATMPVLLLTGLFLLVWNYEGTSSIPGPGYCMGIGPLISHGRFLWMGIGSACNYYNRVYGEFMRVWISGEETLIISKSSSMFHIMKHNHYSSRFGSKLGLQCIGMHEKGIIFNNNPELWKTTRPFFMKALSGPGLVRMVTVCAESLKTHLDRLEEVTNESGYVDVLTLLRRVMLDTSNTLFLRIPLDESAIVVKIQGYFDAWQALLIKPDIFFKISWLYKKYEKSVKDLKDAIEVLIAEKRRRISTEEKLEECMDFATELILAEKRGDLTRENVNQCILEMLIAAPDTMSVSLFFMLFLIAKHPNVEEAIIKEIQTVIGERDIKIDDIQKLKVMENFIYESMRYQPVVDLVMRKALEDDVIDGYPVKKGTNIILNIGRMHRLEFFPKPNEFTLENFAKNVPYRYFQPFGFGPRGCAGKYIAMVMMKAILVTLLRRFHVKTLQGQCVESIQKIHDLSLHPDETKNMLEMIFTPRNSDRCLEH
# Method: Aromatase activity is measured in JEG3 choriocarcinoma cells, obtained from the ATCC.
# During the aromatase reaction, ^3H2O is liberated which can be quantified using a liquid scintillation spectrometer (Beckman-Coulter, High Wycombe, Bucks. UK). […] The number of cell nuclei per flask is determined using a Coulter Counter after treating the cell monolayers with Z aponin.
# Unpaired Student's t test was used to test the statistical significance of results.
# (§1) A number of compounds were tested for aromatase and steroid sulphatase inhibition in accordance with the above Protocols 1 and 6.
# steroid sulphatase (STS) = target: T2, steroid sulphatase (STS) (Homo sapiens, UniProt P08842); assay: Inhibition of steroid sulphatase activity in intact JEG3 cells (Protocol 1); type: cell-based; conditions: for IC50: JEG3 cells
# T2 construct: host or cells: JEG3 choriocarcinoma cells (intact monolayers)
# T2 sequence (P08842 22-583): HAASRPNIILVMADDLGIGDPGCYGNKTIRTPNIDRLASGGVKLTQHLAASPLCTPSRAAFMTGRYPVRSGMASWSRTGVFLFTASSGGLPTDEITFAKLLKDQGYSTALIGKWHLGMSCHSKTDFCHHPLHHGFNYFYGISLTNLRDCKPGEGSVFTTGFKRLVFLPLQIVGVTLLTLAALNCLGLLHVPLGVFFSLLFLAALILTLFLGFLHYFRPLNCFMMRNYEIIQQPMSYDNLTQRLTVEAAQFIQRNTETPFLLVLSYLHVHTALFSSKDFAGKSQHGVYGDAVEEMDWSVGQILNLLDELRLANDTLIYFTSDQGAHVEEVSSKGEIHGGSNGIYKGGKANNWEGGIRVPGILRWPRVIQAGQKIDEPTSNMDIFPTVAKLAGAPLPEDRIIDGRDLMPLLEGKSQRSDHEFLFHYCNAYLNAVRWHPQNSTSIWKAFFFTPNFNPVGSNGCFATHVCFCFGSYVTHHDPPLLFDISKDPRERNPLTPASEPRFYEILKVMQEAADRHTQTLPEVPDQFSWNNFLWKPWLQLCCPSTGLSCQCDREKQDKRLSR
# Method: Inhibition of Steroid Sulphatase Activity in JEG3 cells
# Steroid sulphatase activity is measured in vitro using intact JEG3 choriocarcinoma cells. This cell line may be used to study the control of human breast cancer cell growth.
# Cells are maintained in Minimal Essential Medium (MEM) (Flow Laboratories, Irvine, Scotland) containing 20 mM HEPES, 5% foetal bovine serum, 2 mM glutamine, non-essential amino acids and 0.075% sodium bicarbonate. Up to 30 replicate 25 cm^2 tissue culture flasks are seeded with approximately 1×10^5 cells/flask using the above medium. Cells are grown to 80% confluency and the medium is changed every third day.
# Intact monolayers of JEG3 cells in triplicate 25 cm^2 tissue culture flasks are washed with Earle's Balanced Salt Solution (EBSS from ICN Flow, High Wycombe, U.K.) and incubated for 3-4 hours at 37° C. with 5 pmol (7×10^5 dpm) [6, 7-3H]oestrone-3-sulphate (specific activity 60 Ci/mmol from New England Nuclear, Boston, Mass., U.S.A.) in serum-free MEM (2.5 ml) together with oestrone-3-sulphamate (11 concentrations: 0; 1fM; 0.01 pM; 0.1 pM; 1 pM; 0.01 nM; 0.1 nM; 1 nM; […]). After incubation each flask is cooled and the medium (1 ml) is pipetted into separate tubes containing [14C]oestrone (7×10^3 dpm) (specific activity 97 Ci/mmol from Amersham International Radiochemical Centre, Amersham, U.K.). The mixture is shaken thoroughly for 30 seconds with toluene (5 ml). Experiments have shown that >90% [14C]oestrone and <0.1% [3H]oestrone-3-sulphate is removed from the aqueous phase by this treatment. A portion (2 ml) of the organic phase is removed, evaporated and the 3H and 14C content of the residue determined by scintillation spectrometry. The mass of oestrone-3-sulphate hydrolysed was calculated from the 3H counts obtained (corrected for the volumes of the medium and organic phase used, and for recovery of [14C]oestrone added) and the specific activity of the substrate. Each batch of experiments includes incubations of microsomes prepared from a sulphatase-positive human placenta (positive control) and flasks without cells (to assess apparent non-enzymatic hydrolysis of the substrate). The number of cell nuclei per flask is determined using a Coulter Counter after treating the cell monolayers with Zaponin. One flask in each batch is used to assess cell membrane status and viability using the Trypan Blue exclusion method (Phillips, H. J. (1973) In: Tissue culture and applications, [eds: Kruse, D. F. & Patterson, M. K.]; pp. 406-408; Academic Press, New York).
# Results for steroid sulphatase activity are expressed as the mean±1 S.D. of the total product (oestrone+oestradiol) formed during the incubation period (3-4 hours) calculated for […] and, for values showing statistical significance, as a percentage reduction (inhibition) over incubations containing no oestrone-3-sulphamate. Unpaired Student's t-test was used to test the statistical significance of results.
# as §1
# rats = conditions: cited from earlier work
# steroid sulphatase = target: T3, steroid sulphatase (Homo sapiens, UniProt P08842); conditions: cited from earlier work
# T3 sequence (P08842 22-583): T2 sequence (P08842 22-583)
# E1-STS = target: T4, E1-STS (Homo sapiens, UniProt P08842); conditions: at 0.1 nM; cited from earlier work
# T4 construct: host or cells: intact MCF-7 cells (endogenous enzyme)
# T4 sequence (P08842 22-583): T2 sequence (P08842 22-583)
# [1] = cited from earlier work
SMILES,IC50 (Aromatase),IC50 (steroid sulphatase (STS)),also measured
NS(=O)(=O)Oc1ccc(SCc2cccc(Cn3cncn3)c2)cc1Cl [compound 1979],< 1 µM,< 1 µM,–
"N#Cc1cc(Cn2cncn2)ccc1-c1ccc(OS(N)(=O)=O)c(Cl)c1 [Compound 50, 4′-((1H-1,2,4-triazol-1-yl)methyl)-3-chloro-2′-cyanobiphenyl-4-yl sulfamate]",< 1 µM,< 1 µM,–
"N#Cc1cc(Cn2cncn2)cc(-c2ccc(OS(N)(=O)=O)c(Cl)c2)c1 [Compound 40, 3′-((1H-1,2,4-triazol-1-yl)methyl)-3-chloro-5′-cyanobiphenyl-4-yl sulfamate]",< 1 µM,< 10 µM,–
NS(=O)(=O)Oc1cccc(-c2cccc(Cn3cncn3)c2)c1 [compound 1848],< 1 µM,< 10 µM,–
COc1cc2c(cc1OS(N)(=O)=O)CC[C@@H]1[C@@H]2CC[C@]2(C)C(=O)CC[C@@H]12 [2-methoxyoestrone-3-O-sulphamate],–,–,"oestrogenicity (rats; rat, in vivo): devoid of oestrogenicity; potency as a steroid sulphatase inhibitor compared with EMATE (steroid sulphatase): equipotent with EMATE"
"CC12CCC3c4ccc(OS(N)(=O)=O)cc4CCC3C1CCC2=O (stereo not drawn) [EMATE, oestrone-3-sulphamate]",–,–,"inhibition of E1-STS activity in intact MCF-7 cells (E1-STS): more than 99%; oral uterotrophic activity in rats relative to estradiol (rats; oral, rats, versus estradiol): 100 times"
"N#Cc1ccc(-c2ccc(OS(N)(=O)=O)cc2)cc1Cn1cncn1 [Compound 31, 3′-((1H-1,2,4-triazol-1-yl)methyl)-4′-cyanobiphenyl-4-yl sulfamate]",< 1 µM,< 1 µM,melting point: 179 to 180 °C
"N#Cc1ccc(Cn2cncn2)cc1-c1ccc(OS(N)(=O)=O)c(Cl)c1 [Compound 23, 5′-((1H-1,2,4-triazol-1-yl)methyl)-3-chloro-2′-cyanobiphenyl-4-yl sulfamate]",–,< 1 µM,–
NS(=O)(=O)Oc1ccc(C#Cc2cccc(Cn3cncn3)c2)cc1Cl [compound 2054],–,< 1 µM,–
"C[C@]12CC[C@@H]3c4ccc(OS(=O)(=O)O)cc4CC[C@H]3[C@@H]1CCC2=O [E1S, oestrone sulphate]",–,–,half-life in blood [1]: 10 to 12 h
NS(=O)(=O)Oc1ccc(-c2cccc(Cn3cncn3)c2)cc1 [compound 1455],< 1 µM,< 10 µM,–
"N#Cc1cc(Cn2cncn2)ccc1-c1ccc(OS(N)(=O)=O)cc1 [Compound 48, 4′-((1H-1,2,4-triazol-1-yl)methyl)-2′-cyanobiphenyl-4-yl sulfamate]",< 1 µM,< 1 µM,–
"CC(C)(C#N)c1cc(Cn2cncn2)cc(-c2ccc(OS(N)(=O)=O)c(Cl)c2)c1 [Compound 58, 3′-((1H-1,2,4-triazol-1-yl)methyl)-3-chloro-5′-(2-cyanopropan-2-yl)biphenyl-4-yl sulfamate]",< 1 µM,–,"JEG3-cells STS, % at single concentration (steroid sulphatase (STS); @ 10 μM): 68.2 ± 1.6% @ 10 μM; melting point: 71 to 74 °C"
NS(=O)(=O)Oc1ccc(SCc2ccc(Cn3cncn3)cc2)cc1Cl [compound 1980],< 1 µM,< 1 µM,–
"N#Cc1ccc(-c2ccc(OS(N)(=O)=O)c(Cl)c2)cc1Cn1cncn1 [Compound 33, 3′-((1H-1,2,4-triazol-1-yl)methyl)-3-chloro-4′-cyanobiphenyl-4-yl sulfamate]",< 1 µM,< 1 µM,melting point: 155 to 158 °C
NS(=O)(=O)Oc1ccc(-c2cccc(Cn3cncn3)c2)cc1Cl [compound 1854],< 1 µM,< 1 µM,–
"N#Cc1ccc(Cn2cncn2)cc1-c1ccc(OS(N)(=O)=O)cc1 [Compound 20, 5′-((1H-1,2,4-triazol-1-yl)methyl)-2′-cyanobiphenyl-4-yl sulfamate]",< 1 µM,< 1 µM,–
NS(=O)(=O)Oc1ccc(-c2ccc(Cn3cncn3)cc2)cc1 [compound 1976],< 10 µM,< 10 µM,–
